{"source": "patent US12570704B2", "about": "“Functionally modified maytansinoids and compositions and methods of use thereof” (University of Georgia Research Foundation, Inc., priority 2019, dated 2026)", "key": {"[1]": {"test_system": "H1299 tumor bearing nude mice", "experiment": "In vivo therapy study with X-ray irradiation", "details": "260.8 nmol/kg i.v. + 6 Gy after 4 h; RT only 1826.4", "description": "All animal experiments were performed according to protocols approved by the Institutional Animal Care and Use Committee (IACUC). Female athymic nude mice (Charles River Laboratories, USA) at 6 weeks old were housed in a protected unit specified for immunodeficient animals. To establish tumor models, H1299 cells (2×10^5 cells) were suspend in a matrigel solution and were subcutaneously injected into mice using a 28-gauge needle. All mice were randomized into six groups (n=5). When the average tumor volume reached 150 mm3, 200 μL free drug (DM1, DM1-NO) or drug loaded NPs (DM1-NPs, DM1-NO-NPs) in PBS at a dose of 260.8 nmol/kg were injected intravenously into the mice. Mice treated with 200 μL PBS were studied as a control. All the other mice received X-ray irradiation (6 Gy, 320 kV) to tumors 4 h after drug/nanoparticle injection, with the rest of the body shielded by lead. Tumor size and body weight were inspected every 3 days using a digital caliper, and the tumor volume was estimated as (length)×(width)2/2. After 24 days, the mice were euthanized, and the tumor was excised and dissected into slices for hematoxylin and eosin (H&E) staining.\nIn vivo therapy studies were performed with H1299 tumor bearing nude mice. When tumor size reached 150 mm3, DM1-NO-NPs (260.8 nmol/kg, equivalent to 0.2 mg DM1/kg) was intravenously (i.v.) injected into the animals (n=5). […]"}, "H1299 cells": {"test_system": "H1299 cells", "experiment": "MTT cell viability assay, 72 h, in the presence of RT", "type": "cell-based, human", "details": "Homo sapiens, NCI-H1299, with RT", "description": "FIGS. 7A-7E are plots showing the results of a cell cycle analysis, based on PI staining and assessed by flow cytometry. H1299 cells were incubated with PBS (7A), DM1 (7B), DM1-NO (7C), DM1-NPs (7D), or DM1-NO-NPs (20 nM, DM1 concentration) (7E) before analysis. […] FIG. 7G is a bar graphs showing Percentage of tubulin inhibition. Tubulin polymer was collected by centrifugation (35000×g for 1 h at 30° C.) and the amount of tubulin protein sediment was quantified by measuring protein concentration. ***, P<0.001. FIG. 7H is a line graph showing cell viability, tested with H1299 cells using 72-h MTT in the presence of RT. DM1, DM1-NO, and DM1-NO-NPs were studied.\nThe viability of the H1299 cells after different treatments was measured by (4,5-dimethythiazon-2-yl)-2,5-diphenyl tetrazolium bromide (MTT) assay using an Infinite M200 microplate reader (BioTek's Synergy™ Mx, USA). Around 3×10^3 cells per well were seeded into a 96-well plate and cultured overnight until the cells fully adhered to the bottom of the plate. The cells were treated with different treatment groups, including free drugs (DM1 and DM1-NO), and drug loaded nanoparticles (DM1-NPs and DM1-NO-NPs) for 72 h. […] The plate was gently shake for 5 min (instrument setup) to dissolve the formazan crystals, and the absorbance at 570 nm was recorded by a microplate reader. […]"}}}
{"smiles": "COc1cc2cc(c1Cl)N(C)C(=O)C[C@@H](OC(=O)[C@H](C)N(C)C(=O)CCSN=O)[C@]1(C)OC1[C@H](C)[C@@H]1C[C@@](O)(NC(=O)O1)[C@H](OC)/C=C\\C=C(/C)C2", "note": "(some centres unmarked) [DM1-NO]", "values": [{"measurement": "average tumor size (volume) on Day 24", "setting": "[1]", "value": 759.33, "unit": "mm3"}, {"measurement": "IC50", "setting": "H1299 cells", "value": 14.9, "unit": "nM"}]}
